In article PMC10507085, “Pharmacological inhibition of TBK1/IKKε blunts immunopathology in a murine model of SARS-CoV-2 infection” (Nature Communications, 2023):

Assays:
Assay in all cases: biochemical
Set-up in all cases: KINOMEscan competition binding, DNA-tagged kinase against immobilised ligand, qPCR read-out
Settings in all cases: read-out: Percent Control
MKNK1 = MKNK1 (Homo sapiens, UniProt Q9BUB5)
CSNK1E = CSNK1E (Homo sapiens, UniProt P49674)
SRPK3 = SRPK3 (Homo sapiens, UniProt Q9UPE1)
GAK = GAK (Homo sapiens, UniProt O14976)
CDK4-cyclinD3 = CDK4-cyclinD3 (Homo sapiens, UniProt P11802)
CSNK2A1 = CSNK2A1 (Homo sapiens, UniProt P68400)
IRAK4 = IRAK4 (Homo sapiens, UniProt Q9NWZ3)
CDK17 = CDK17 (Homo sapiens, UniProt Q00537)
NTRK1 = NTRK1 (Homo sapiens, UniProt P04629)
PRKCQ = PRKCQ (Homo sapiens, UniProt Q04759)
TGFBR1 = TGFBR1 (Homo sapiens, UniProt P36897)
AXL = AXL (Homo sapiens, UniProt P30530)
GRK1 = GRK1 (Homo sapiens, UniProt Q15835)
STK24 = STK24 (Homo sapiens, UniProt Q9Y6E0)
SGK2 = SGK2 (Homo sapiens, UniProt Q9HBY8)
AURKB = AURKB (Homo sapiens, UniProt Q96GD4)
STK39 = STK39 (Homo sapiens, UniProt Q9UEW8)
GSK3A = GSK3A (Homo sapiens, UniProt P49840)
[1] = target: T1, RPS6KA5(Kin.Dom.1-N-terminal) (Homo sapiens, UniProt O75582)
T1 construct: Kin.Dom.1 N-terminal

CSK = CSK (Homo sapiens, UniProt P41240)

Sequence of IRAK4 (Q9NWZ3 whole entry): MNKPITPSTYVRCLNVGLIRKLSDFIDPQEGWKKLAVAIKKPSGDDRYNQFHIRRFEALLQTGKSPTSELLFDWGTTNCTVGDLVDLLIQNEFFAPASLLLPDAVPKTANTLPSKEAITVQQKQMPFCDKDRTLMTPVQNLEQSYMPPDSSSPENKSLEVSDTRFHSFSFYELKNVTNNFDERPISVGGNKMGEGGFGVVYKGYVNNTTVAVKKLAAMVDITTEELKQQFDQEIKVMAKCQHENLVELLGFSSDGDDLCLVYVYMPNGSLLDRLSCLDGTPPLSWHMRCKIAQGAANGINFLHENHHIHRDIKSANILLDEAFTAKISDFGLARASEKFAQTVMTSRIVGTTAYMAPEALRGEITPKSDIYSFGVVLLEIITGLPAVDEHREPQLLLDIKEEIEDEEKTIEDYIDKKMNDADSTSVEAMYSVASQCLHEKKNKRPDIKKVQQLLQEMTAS
Sequence of GSK3A (P49840 whole entry): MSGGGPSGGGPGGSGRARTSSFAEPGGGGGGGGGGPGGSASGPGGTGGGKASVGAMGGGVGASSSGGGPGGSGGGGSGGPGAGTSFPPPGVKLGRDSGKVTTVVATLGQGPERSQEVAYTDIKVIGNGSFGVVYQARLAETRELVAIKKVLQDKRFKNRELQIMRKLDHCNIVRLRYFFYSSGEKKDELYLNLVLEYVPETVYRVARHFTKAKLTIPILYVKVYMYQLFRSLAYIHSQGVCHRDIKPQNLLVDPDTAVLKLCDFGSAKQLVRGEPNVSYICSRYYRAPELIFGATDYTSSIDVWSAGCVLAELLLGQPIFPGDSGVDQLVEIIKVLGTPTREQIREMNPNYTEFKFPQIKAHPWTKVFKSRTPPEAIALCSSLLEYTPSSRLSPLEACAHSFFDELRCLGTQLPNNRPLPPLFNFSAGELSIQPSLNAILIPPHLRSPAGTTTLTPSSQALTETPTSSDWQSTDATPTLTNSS
Sequence of PRKCQ (Q04759 whole entry): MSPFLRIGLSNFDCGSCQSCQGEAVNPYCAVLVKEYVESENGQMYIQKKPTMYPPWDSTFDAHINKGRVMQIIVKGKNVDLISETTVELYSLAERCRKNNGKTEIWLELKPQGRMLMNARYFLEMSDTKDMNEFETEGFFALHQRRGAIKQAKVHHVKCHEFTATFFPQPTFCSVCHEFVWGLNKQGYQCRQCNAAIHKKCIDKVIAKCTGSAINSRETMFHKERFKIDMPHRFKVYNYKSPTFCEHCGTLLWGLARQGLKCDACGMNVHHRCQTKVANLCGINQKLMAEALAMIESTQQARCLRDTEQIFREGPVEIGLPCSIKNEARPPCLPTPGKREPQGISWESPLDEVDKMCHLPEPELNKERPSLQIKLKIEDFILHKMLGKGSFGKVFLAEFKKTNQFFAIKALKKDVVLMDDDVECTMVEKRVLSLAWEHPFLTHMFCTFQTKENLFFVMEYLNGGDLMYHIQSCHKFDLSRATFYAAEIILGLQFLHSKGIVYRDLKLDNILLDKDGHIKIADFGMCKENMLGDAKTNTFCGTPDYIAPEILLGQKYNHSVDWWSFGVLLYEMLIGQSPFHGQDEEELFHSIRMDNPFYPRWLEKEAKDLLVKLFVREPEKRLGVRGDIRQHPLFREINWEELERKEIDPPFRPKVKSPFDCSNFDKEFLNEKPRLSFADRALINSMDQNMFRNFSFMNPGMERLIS
Sequence of SRPK3 (Q9UPE1 whole entry): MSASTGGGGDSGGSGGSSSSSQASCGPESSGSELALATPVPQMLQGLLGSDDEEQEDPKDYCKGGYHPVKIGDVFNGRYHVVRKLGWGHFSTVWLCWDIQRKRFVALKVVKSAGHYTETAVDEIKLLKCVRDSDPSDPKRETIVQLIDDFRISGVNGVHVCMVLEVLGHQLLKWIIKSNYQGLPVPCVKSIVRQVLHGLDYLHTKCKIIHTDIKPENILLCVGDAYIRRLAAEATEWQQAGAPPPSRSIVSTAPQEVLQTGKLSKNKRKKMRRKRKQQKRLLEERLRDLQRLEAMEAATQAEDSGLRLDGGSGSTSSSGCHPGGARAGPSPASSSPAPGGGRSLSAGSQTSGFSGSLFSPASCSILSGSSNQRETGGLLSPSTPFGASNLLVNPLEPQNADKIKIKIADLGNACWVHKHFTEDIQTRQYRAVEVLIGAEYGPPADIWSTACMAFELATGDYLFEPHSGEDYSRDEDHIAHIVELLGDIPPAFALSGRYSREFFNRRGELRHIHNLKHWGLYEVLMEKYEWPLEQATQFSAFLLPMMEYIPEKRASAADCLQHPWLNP
T1 sequence (O75582 whole entry): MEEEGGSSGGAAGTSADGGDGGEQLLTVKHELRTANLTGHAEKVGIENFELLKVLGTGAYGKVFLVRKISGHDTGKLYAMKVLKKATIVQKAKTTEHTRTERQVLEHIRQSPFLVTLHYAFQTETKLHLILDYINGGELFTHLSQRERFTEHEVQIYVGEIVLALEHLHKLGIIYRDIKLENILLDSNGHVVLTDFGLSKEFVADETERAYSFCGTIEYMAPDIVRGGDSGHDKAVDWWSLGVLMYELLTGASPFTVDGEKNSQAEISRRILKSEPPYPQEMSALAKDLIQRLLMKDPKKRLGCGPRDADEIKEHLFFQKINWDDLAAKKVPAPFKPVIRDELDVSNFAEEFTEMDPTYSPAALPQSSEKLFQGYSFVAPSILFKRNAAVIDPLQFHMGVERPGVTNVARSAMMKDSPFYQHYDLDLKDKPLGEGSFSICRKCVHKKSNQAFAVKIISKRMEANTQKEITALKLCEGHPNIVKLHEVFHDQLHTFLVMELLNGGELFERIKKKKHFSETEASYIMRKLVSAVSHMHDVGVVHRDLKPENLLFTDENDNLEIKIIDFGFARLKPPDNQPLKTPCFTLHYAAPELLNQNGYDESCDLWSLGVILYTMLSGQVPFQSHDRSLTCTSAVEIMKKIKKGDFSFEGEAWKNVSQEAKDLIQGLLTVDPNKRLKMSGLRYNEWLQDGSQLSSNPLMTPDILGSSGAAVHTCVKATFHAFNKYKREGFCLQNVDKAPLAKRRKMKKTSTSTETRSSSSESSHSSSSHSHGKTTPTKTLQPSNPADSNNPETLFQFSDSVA
Sequence of GRK1 (Q15835 whole entry): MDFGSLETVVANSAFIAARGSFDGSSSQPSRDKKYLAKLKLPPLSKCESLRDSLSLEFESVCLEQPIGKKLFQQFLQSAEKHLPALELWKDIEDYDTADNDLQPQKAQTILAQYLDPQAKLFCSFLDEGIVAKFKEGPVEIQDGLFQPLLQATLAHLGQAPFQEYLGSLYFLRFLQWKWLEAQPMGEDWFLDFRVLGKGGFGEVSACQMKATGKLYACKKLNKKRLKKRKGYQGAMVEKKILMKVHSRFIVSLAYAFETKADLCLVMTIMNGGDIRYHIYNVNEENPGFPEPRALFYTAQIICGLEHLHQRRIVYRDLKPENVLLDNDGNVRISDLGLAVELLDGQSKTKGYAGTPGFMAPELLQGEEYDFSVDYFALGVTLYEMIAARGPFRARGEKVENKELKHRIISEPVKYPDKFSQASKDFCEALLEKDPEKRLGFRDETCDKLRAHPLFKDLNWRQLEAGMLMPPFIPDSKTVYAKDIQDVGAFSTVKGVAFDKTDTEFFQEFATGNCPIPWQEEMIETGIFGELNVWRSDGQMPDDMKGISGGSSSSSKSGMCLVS
Sequence of AURKB (Q96GD4 whole entry): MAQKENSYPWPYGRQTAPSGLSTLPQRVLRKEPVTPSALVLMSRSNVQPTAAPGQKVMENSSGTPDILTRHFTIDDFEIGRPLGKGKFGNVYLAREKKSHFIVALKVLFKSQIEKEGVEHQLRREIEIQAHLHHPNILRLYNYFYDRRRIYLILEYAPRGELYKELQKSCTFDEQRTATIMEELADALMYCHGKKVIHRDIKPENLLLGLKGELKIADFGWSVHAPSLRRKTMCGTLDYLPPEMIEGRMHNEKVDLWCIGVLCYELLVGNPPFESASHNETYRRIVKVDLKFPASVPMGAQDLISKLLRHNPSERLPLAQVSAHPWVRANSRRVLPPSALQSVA
Sequence of SGK2 (Q9HBY8 whole entry): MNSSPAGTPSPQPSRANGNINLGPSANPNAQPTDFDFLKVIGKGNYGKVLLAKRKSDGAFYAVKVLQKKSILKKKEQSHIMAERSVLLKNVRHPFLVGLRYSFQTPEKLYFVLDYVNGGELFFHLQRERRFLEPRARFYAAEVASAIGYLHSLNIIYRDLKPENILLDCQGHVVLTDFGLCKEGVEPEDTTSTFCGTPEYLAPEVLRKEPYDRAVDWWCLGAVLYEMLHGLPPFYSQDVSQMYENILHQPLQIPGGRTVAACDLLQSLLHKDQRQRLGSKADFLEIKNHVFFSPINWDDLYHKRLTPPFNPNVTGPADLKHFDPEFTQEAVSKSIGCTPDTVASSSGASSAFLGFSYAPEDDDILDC
Sequence of CDK4-cyclinD3 (P11802 whole entry): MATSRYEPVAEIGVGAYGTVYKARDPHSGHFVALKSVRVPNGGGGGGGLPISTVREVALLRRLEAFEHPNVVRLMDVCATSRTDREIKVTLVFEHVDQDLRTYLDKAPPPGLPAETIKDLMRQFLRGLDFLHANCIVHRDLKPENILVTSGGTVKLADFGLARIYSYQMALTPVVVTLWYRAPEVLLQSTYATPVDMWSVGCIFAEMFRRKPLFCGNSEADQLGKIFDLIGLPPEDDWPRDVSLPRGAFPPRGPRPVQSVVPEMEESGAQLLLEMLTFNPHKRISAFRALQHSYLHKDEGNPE
Sequence of CDK4-cyclinD3 (P30281 whole entry partner): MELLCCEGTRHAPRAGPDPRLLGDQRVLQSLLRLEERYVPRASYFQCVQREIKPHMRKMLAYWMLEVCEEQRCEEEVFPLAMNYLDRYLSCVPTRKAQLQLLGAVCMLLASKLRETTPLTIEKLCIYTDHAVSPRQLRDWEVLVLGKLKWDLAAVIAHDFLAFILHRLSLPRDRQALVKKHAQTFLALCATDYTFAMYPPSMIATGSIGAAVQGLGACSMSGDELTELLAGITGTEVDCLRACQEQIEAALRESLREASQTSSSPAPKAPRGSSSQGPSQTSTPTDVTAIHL

`Oc1ccc(C2=Cc3ccc(O)cc3OC2)cc1` [compound 1, idronoxil] gave a remaining binding at 10 µM (MKNK1) of 55%, a remaining binding at 10 µM (CSNK1E) of 74% and a remaining binding at 10 µM (SRPK3) of 94%. For the same molecule, the remaining binding at 10 µM (GAK) was 58%, the remaining binding at 10 µM (CDK4-cyclinD3) was 85% and the remaining binding at 10 µM (CSNK2A1) was 49%. The remaining binding at 10 µM (IRAK4) was 79%, the remaining binding at 10 µM (CDK17) was 97% and the remaining binding at 10 µM (NTRK1) was 91%. For the same molecule, the remaining binding at 10 µM (PRKCQ) was 73%, the remaining binding at 10 µM (TGFBR1) was 78% and the remaining binding at 10 µM (AXL) was 95%. It also gave a remaining binding at 10 µM (GRK1) of 100%, a remaining binding at 10 µM (STK24) of 79% and a remaining binding at 10 µM (SGK2) of 95%. For the same molecule, the remaining binding at 10 µM (AURKB) was 12%, the remaining binding at 10 µM (STK39) was 71% and the remaining binding at 10 µM (GSK3A) was 74%. For the same molecule, the remaining binding at 10 µM [1] was 100% and the remaining binding at 10 µM (CSK) was 100%.
